Experimental data published in US20200338195A1, “PHARMACEUTICAL COMPOSITIONS COMPRISING 0.25 MG DOSE OF SYNTHETIC HUMAN PEPTIDES FOR TREATING SYSTEMIC LUPUS ERYTHEMATOSUS” (priority 2016, published 2020).
“Also recorded” adds a separate entry of the source. Where two headings read alike, the source gives them in different places.

Assays:
[1] = system: subjects with active SLE; test: Low dose Edratide therapy, 26-week phase 2 dose-ranging study (Example 2); format: in vivo, human
Excerpt: The study will test about 200 study subjects, in about 50 centres. The study population will include seropositive SLE patients (presence of anti-dsDNA antibodies by FARRzyme immunoassay, titer ≥30 IU, and/or the Crithidia luciliae immunofluorescence test, and/or antinuclear antibodies (ANA) ≥1:160 or 1:80 in which case the Adjudication Committee would review the subject's data at baseline.
The total duration of the study is expected to be 34 weeks: • Screening Phase: <30 days (4 weeks) • Phase 2 double-blind treatment phase: 26 weeks (6 months) • Follow-up phase for safety: 4 weeks
Glucocorticoid dosing: It is highly recommended to initiate tapering from the baseline dose of prednisone/prednisone equivalent on or after week 4, as clinically indicated from doses ≥15 mg/day to ≥7.5 mg/day; tapering could continue until week 18. No changes in dose of prednisone/prednisone equivalent doses are allowed during weeks 19-26, the last 8 weeks of the trial. No specific tapering regimen is required, but to be determined as clinically indicated by the investigator.
Active SLE patients will be screened for up to 30 days prior to the baseline visit (visit 2). Each subject will undergo screening evaluations.
The subjects must meet the following inclusion criteria: • 1.Subjects diagnosed with SLE must have a documented medical history to meet Systemic Lupus International […] (SLICC) classification criteria for SLE, or have accumulated 4 classification criteria (1997 revised) of the American College of Rheumatology (ACR) for SLE prior to first dose. • 2. Subjects with active SLE must have: • a. At least one BILAG-A and/or two BILAG-B's, and • b. SLEDAI score of 6 or higher, excluding serology scores, and be • c. Serologically-positive as defined by 2 positive ANA or anti-dsDNA antibody test results (titer ≥30 IU by FARR radioimmunoassay and/or the Crithidia luciliae immunofluorescence test, and/or ANA 1:160 or 1:80 in which case the adjudication committee would review the subject's data) of which ≥1 test result must be obtained during screening • 3. Subjects must be ≥18 years of age • 4. SLE patients on stable SLE treatment regimen for at least three (3) months • 5. SLE patients on 15 mg of prednisone/prednisone equivalent, which have been stable for at least 14 days • 6. Subjects receiving 2 g/days of Mycophenolate mofetil (MMF) or ≤1440 mg of Myfortic • 7. Women of child-bearing potential must practice a medically acceptable method of contraception. Acceptable methods include: surgical sterilization, IUD, hormonal preparations, or double barrier method (e.g. condom or diaphragm with spermicidal) • 8. Subjects must be willing and able to give written informed consent prior to entering the study. • 9. Subjects must understand the requirements of the study and agree to comply with the study protocol.
The presence of any of the following excludes a subject from study enrollment: • i. Subjects with active Lupus nephritis as defined by a protein to creatinine ratio limit of ≥0.75 and/or active urine sediments defined as hematuria (>10 RBC/HPF) and/or RBC casts. • ii. Subjects with active central nervous system (CNS) Lupus as defined by CNS BILAG-A or BILAG-B. • iii. Subjects with active peripheral nervous system (PNS) Lupus as defined by PNS BILAG-A or BILAG-B. • iv. Subjects receiving >15 mg of glucocorticoid at baseline • v. Subjects having recently received • a. Cyclophosphamide (wash-out period 3 months), • b. Cyclosporine (wash-out period 3 months), • c. Rituximab (wash-out period at least 52 weeks provided that the CD19 count has returned to normal), or • d. Belimumab (wash-out period 6 months) • e. Any investigational drug (wash-out period 5 half-lives of elimination) […]

[2] = system: peripheral blood lymphocytes (PBL) of SLE patients; details: cited from earlier work
[3] = system: mice afflicted with spontaneous or experimental SLE; details: mouse, in vivo; cited from earlier work
[4] = system: SLE patients; details: cited from earlier work; for incidence of adverse events (AEs), % of the subjects: placebo 75%
[5] = system: SLE patients with stable, mild to moderate SLE disease; details: cited from earlier work
[6] = system: SLE patients; test: PRELUDE Study, phase 2 placebo-controlled efficacy, tolerability and safety study of three doses of Edratide; details: for early withdrawal due to AE, % of subjects: placebo 2.3%; for AE incidence: 26 weeks, placebo 79.3%
Experimental: The total study treatment duration was 26 weeks. Scheduled visits were performed at screening, baseline and at weeks 4, 8, 12, 16, 20, 24, and 26 (termination). […] Non-compliance with the tapering down scheme was not regarded as a protocol violation. During the entire course of the study it was allowed to increase the steroid prednisolone dose to up to 60 mg. Use of intravascular/intramuscular steroid was considered a protocol violation. […] PK assessment of CAPTISOL® for all four treatment groups was conducted following the first dose and Weeks 12 and 26 doses. Disease and drug related immunology parameters were tested at baseline and at several time points thereafter.
The main inclusion criteria of this trial were: • SLEDAI 2K score of 6-12 • Stable concomitant medications (prednisone<40 mg, NSAIDs, antimalarials) for at least 1 month prior to baseline.
The co-primary end-points presented in their hierarchical order below were: • Change from baseline to last observed value (LOV) in SLEDAI 2K score (Landmark Analysis.) • Adjusted Mean SLEDAI 2K (AMS). AMS represents the time weighted average of disease activity as measured by SLEDAI 2K score [area under the curve (AUC) of SLEDAI 2K].
Secondary end-points: • BILAG proportion of responders. BILAG responders were defined as: • a. Non Responder (NR)—same BILAG score in Last Observed Value (LOV) as in baseline in all systems or new A or B in at least one system compared to baseline (other systems may improve or deteriorate). • b. Substantial Responder (SR)—all systems at LOV are either C or D/E providing that at least one system was either A or B at baseline • c. […] Mental component Score. Change from baseline to LOV • SF-36 (QoL) Physical component Score—Change from Baseline to LOV • Time Weighted Average (TWA) on cumulative steroids dose with p.o. administration.
Exploratory end-points: • Primary end-point sensitivity analysis to steroid increase (excluding the observations following steroid increase) • Proportions of Zero SLEDAI Score at LOV • Time to Zero SLEDAI Score • BILAG Total Score—Change from Baseline to LOV
Flares Analysis: • Time to medicinal flare • Time to new BILAG A or at least two new B's • Time to new BILAG A or at least two new B's (excluding persistent activity) • Steroid dose (PO)—Change from baseline to LOV • PGA—Physician's Global Assessment

H-GYYWSWIRQPPGKGEEWIG-OH [Edratide]
global assessment of disease activity based on MCID ([1]; 0.25 mg sc every week): significant improvement | mean Lupus-QOL relative to baseline ([1]; 0.25 mg sc every week): significant improvement | mean time to first confirmed major SLE flare ([1]; 0.25 mg sc every week, Fortin definition): significantly increased | mean time to first confirmed severe SLE flare ([1]; 0.25 mg sc every week, new BILAG A or two new BILAG B): significantly increased | disease parameter/s ([1]; 0.25 mg sc every week, specific sub-populations of SLE subjects): improvements of disease parameter/s; also recorded: improvement of at least one disease parameter | mean glucocorticoid dose relative to baseline ([1]; 0.25 mg sc every week, week 26): significant change | proportion of subjects achieving MCID of one by SLEDAI-2K Responder Index 50 ([1]; 0.25 mg sc every week, week 26): significant proportion | proportion of subjects achieving a response by composite SLE Responder Index (cSRI) ([1]; 0.25 mg sc every week, week 26): significant proportion | proportion of subjects achieving response by the SLE Responder Index ([1]; 0.25 mg sc every week, week 26): significant proportion | proportion of subjects having all organ systems either BILAG C or BILAG D/E ([1]; 0.25 mg sc every week, week 26): significant proportion | proportion of subjects with at least one BILAG A or B organ system at baseline dropping by one score without deterioration to BILAG A or B in any other system ([1]; 0.25 mg sc every week, week 26, primary outcome): significant proportion | reduction of the amount of corticosteroid therapy required to control disease activity of SLE ([1]; weekly 0.25 mg dose): effective in enabling reduction | proliferative response of PBL of SLE patients to the human anti-DNA 16/6Id mAB [2]: inhibit the proliferative response | disease manifestations of mice afflicted with spontaneous or experimental SLE [3]: ameliorate disease manifestations | change of total SLEDAI-2K score during the study ([4]; single sc 0.5, 1 or 2.5 mg, any subject except one in the 0.5 mg group (2 to 10 points at Week 4)): No noteworthy change | incidence of adverse events (AEs), % of the subjects ([4]; single sc injection 0.5 mg): 33% | incidence of adverse events (AEs), % of the subjects ([4]; single sc injection 1 mg): 67% | incidence of adverse events (AEs), % of the subjects ([4]; single sc injection 2.5 mg): 80% | subjects with an increase in total SLEDAI-2K score of 0-3 points during the study ([5]; 0.5 mg group): Two | subjects with an increase in total SLEDAI-2K score of 0-3 points during the study ([5]; 2.5 mg group): 2 subjects | subjects reporting AEs during the 8-week follow-up period (off-drug) ([5]; all treatment groups): Approximately 50% | adjusted mean SLEDAI (AMS) score, change from baseline to termination visit ([5]; all treatment groups, decrease = improvement): −0.1 to −1.5 points | mean group total BILAG score during the study ([5]; any treatment group): No trend | overall incidence of AEs between all treatment groups ([5]; sc twice weekly for 4 weeks, 0.5, 1 or 2.5 mg vs placebo): no prominent difference | serious adverse events (SAE) throughout the study ([5]; sc twice weekly for 4 weeks, 0.5, 1 or 2.5 mg): No SAE was reported | severity of injection site reactions ([5]; sc twice weekly for 4 weeks, all treatment groups): mild | post hoc analysis on BILAG responders, system improved ([6]; 0.5 mg Edratide): improvement mainly in the cutaneous system | Serious Adverse Events (SAEs), % of subjects ([6]; 0.5 mg Edratide (6 subjects), placebo 10.3%): 7.1% | Serious Adverse Events (SAEs), % of subjects ([6]; 1.0 mg dose group (10 subjects), placebo 10.3%): 11.5% | Serious Adverse Events (SAEs), % of subjects ([6]; 2.5 mg dose group (8 subjects), placebo 10.3%): 9.8% | early withdrawal due to AE, % of subjects ([6]; Edratide 0.5 mg (5 subjects)): 6.0% | deaths during the study ([6]; Edratide 0.5 mg group, most probably septic shock, classified as not related to study drug): One | AE incidence ([6]; Edratide 0.5 mg sc): 82.1% | BILAG substantial responders, % of subjects ([6]; Edratide 0.5 mg, ITT, LOV vs baseline, placebo 22%, p=0.03): 36% | subjects with a medicinal flare ([6]; Edratide 0.5 mg, ITT, post hoc, n=14, placebo 29% (n=25), p=0.039): 17% | medicinal flare, OR vs placebo ([6]; Edratide 0.5 mg, ITT, post hoc, p=0.039): 0.43 | BILAG substantial response, odds ratio (OR) vs placebo ([6]; Edratide 0.5 mg, ITT, p=0.03, not significant after multiplicity adjustment): 2.09 | change in the SF-36 mental score compared to placebo ([6]; Edratide 0.5 mg, opposite trend for the physical score): slightly better | early withdrawal due to AE, % of subjects ([6]; Edratide 1.0 mg (3 subjects)): 3.4% | AE incidence ([6]; Edratide 1 mg sc): 77% | BILAG substantial responders, OR vs placebo ([6]; Edratide 1 mg, p=0.07 without correction for multiple comparison): 1.85 | early withdrawal due to AE, % of subjects ([6]; Edratide 2.5 mg (3 subjects)): 3.7% | AE incidence ([6]; Edratide 2.5 mg sc): 75.6% | safety signal and dose response from the AEs analysis and additional safety data ([6]; Edratide 0.5, 1 and 2.5 mg): no clear dose response and no significant safety signal | early terminations due to AEs vs placebo ([6]; Edratide vs placebo): more often on Edratide than on placebo | cSRI positive responders ([6]; ITT, n=26, placebo 20% (n=17), p=0.058, FIG. 4): 34% | BILAG non-responders, seropositive patients ([6]; anti-DNA>30 IU at baseline, n=11, placebo 68% (n=21), p=0.05): 42% | BILAG substantial responders, seropositive patients ([6]; anti-DNA>30 IU at baseline, placebo 26%, FIG. 2C): 46% | co-primary endpoints (change from baseline to LOV in SLEDAI 2K score; adjusted mean SLEDAI 2K) vs placebo ([6]; any of the active treatment groups (0.5, 1, 2.5 mg)): no differences | SF-36 mental or physical scores, differences between the treatment groups ([6]; change from baseline to LOV): No clinically or statistically significant differences | cumulative change in steroid dose throughout the study, differences between the treatment groups ([6]; mean baseline steroids dose 9-10 mg/day of prednisolone): No clinically or statistically significant differences | BILAG substantial responders, % of subjects ([6]; no steroids at baseline, 0.5 mg Edratide, placebo 13%, p=0.05): 54% | mean reduction from baseline SLEDAI-2K score ([6]; overall, regardless of treatment): about 35% | SAE incidence ([6]; pooled Edratide group, placebo 10.3%): 9.5% | BILAG substantial responders, % of subjects ([6]; prednisolone dose <20 mg at baseline (pooled cohort of 292 subjects), placebo 19%, p=0.007, FIG. 2B): 40% | BILAG substantial response, OR vs placebo ([6]; prednisolone dose <20 mg at baseline, p=0.007): 2.75
